Columns and labels:
Caspase-9 = Caspase-9 (Homo sapiens, UniProt P55211); test: Caspase selectivity; assay type: biochemical
[1] = tested on: MALT1^WT NF-κB activation; test: NF-κB reporter assay in 293T cells, PMA/ionomycin, BCL10 and MALT1 WT; assay type: cell-based; settings: pre-treatment
Description: Antigen receptor-mediated NF-κB signaling partly depends on MALT1 activity (Ruefli-Brasse et al., 2003; Ruland et al., 2003). […] First, 293T cells were transfected with the NF-κB reporter vector (NF-κB)5-luc2CP-pGL4 (harboring 5 copies of the NF-κB consensus response element and a destabilized Firefly luciferase) and TK-pRL control together with plasmids expressing BCL10 and either MALT1^WT or MALT1^C464A. […] HBL-1 was transfected with the reporter construct (NF-κB)5-luc2CP-pGL4 and TK-pRL control.
Reporter assays were performed in 293T cells seeded at a density of 2×10^5 cells per well of a 12-well dish. 100 ng of (NF-κB)5-Luc2CP-pGL4 and 10 ng of TK-Renilla internal control plasmid were cotransfected along with 25 ng of the indicated plasmids (MIGR1-MALT1^WT or MIGR1-MALT1^C464A and pcDNA4-Flag-Bcl10) using Lipofectamine 2000 (Invitrogen). Lysates were submitted to dual luciferase assays following manufacturer's protocol (Promega). In HBL-1, 5 μg of (NF-κB)5-Luc2CP-pGL4 and 50 ng of TK-Renilla internal control plasmid per 5×10^6 cells were cotransfected using nucleofection (Amaxa, Lonza, Basel, Switzerland). Forty-eight hours after transfection, cells were plated at a density of 5×10^4 cells per well of a 24-well plate and treated as indicated. Lysates were submitted to dual luciferase assays following manufacturer's protocol (Promega).

[2] = tested on: NF-κB signaling gene signatures; test: Gene expression profiling and GSEA in HBL-1 and TMD8 cell lines; assay type: cell-based, human; settings: 8 hr, HBL-1 200 nM, TMD8 500 nM
Experimental: The impact of MI-2 on NF-κB signaling was further characterized by gene expression profiling. […] Z-VRPR-FMK was previously shown to attenuate the NF-κB signature in ABC-DLBCL cell lines (Hailfinger et al., 2009). […] GSEA was next performed using two independent ABC-DLBCL NF-κB gene expression signatures derived from either OCI-Ly3 and OCI-Ly10 or HBL-1 cell lines.
RNA integrity was determined using the RNA 6000 Nano LabChip Kit on an Agilent 2100 Bioanalyzer (Agilent Technologies, Santa Clara, Calif.). Samples were processed following Illumina recommendations and cRNA was hybridized to the HumanHT-12 v4 Expression BeadChip (Illumina, San Diego, Calif.). Arrays were scanned on the iScan system. Data pre-processing and quality control were performed using GenomeStudio. The data were log2-transformed combined with quantile normalization (Du et al., 2008). GEO accession number GSE40003.
In order to determine the biological significance of the results, enrichment tests with respect to sets of related genes were carried out. To this end, we used GSEA (Gene Set Enrichment Analysis) software, and datasets were pre-ranked by fold change value (Subramanian et al., 2005). The p-values for each gene-set were computed on the basis of 1,000 iterations and multiple hypotheses testing correction for FDR calculation (Storey and Tibshirani, 2003).

HBL-1 and TMD8 cells = test: Trypan blue exclusion and Annexin V+ DAPI- apoptosis over 14 days, ABC-DLBCL lines; assay type: cell-based, human; settings: treated daily at GI25 and GI50, every 48 hr for 14 days
Experimental: Cell proliferation was examined using the CFSE dilution assay by flow cytometry on viable cells at 48, 72 and 96 h. […] Trypan blue exclusion and apoptosis assessed by Annexin V^+ DAPI^− flow cytometry was measured every 48 hr for a period of 14 days.
Apoptosis was assessed by AnnexinV-APC/DAPI (BD Pharmingen) staining followed by flow cytometry.

[3] = tested on: TMD8 ABC-DLBCL xenografts; test: TMD8 xenograft in NOD-SCID mice; assay type: in vivo; settings: IP 25 mg/kg/day
Experimental: (§1) Animals were sacrificed 24 hr after the fourteenth injection.
(§2) Eight-week old male SCID NOD.CB17-Prkdc^scid/J mice were subcutaneously injected with low-passage 10^7 human HBL-1, TMD8 or OCI-Ly1 cells. Treatment was administered by intra-peritoneal injection. Tumor volume was monitored by three-weekly digital calipering. All procedures followed US NIH protocols and were approved by the Animal Institute Committee of the Weill Cornell Medical College.
(§3) Eight-week old male SCID NOD.CB17-Prkdc^scid/J mice were purchased from Jackson Laboratories (Bar Harbor, Minn.) and housed in a clean environment. Mice were subcutaneously injected with low-passage 10^7 human TMD8 or OCI-Ly1 cells in 50% matrigel (BD Biosciences, #354234). Treatment was initiated when tumors reached an average size of 120 mm^3 (17 days post-transplantation). Drugs were reconstituted in DMSO and stored at −80° C. until used and were administered by intra-peritoneal injection. Tumor volume was monitored by three-weekly digital calipering (Fisher Scientific, Thermo Scientific, Rockford, Ill.) and calculated using the formula (smallest diameter^2×largest diameter)/2. Data were expressed as mean±SEM, and differences were considered statistically significant at p<0.05 by paired Student's t-test. All procedures involving animals followed US NIH protocols and were approved by the Animal Institute Committee of the Weill Cornell Medical College of Cornell University.
Paraffin-embedded tumor xenografts were sectioned, dewaxed and submitted to antigen retrieval. For IF-P, Alexa Fluor-488 conjugated secondary antibodies from Invitrogen where used and cell nuclei where counterstained with DAPI. Fluorescent images were taken using an Axiovert 200M fluorescent microscope (Carl Zeiss Inc., Thornwood, N.Y.). Oberkochen, Germany). For IHC, biotin-conjugated secondary antibodies where used. Then avidin/biotin peroxidase was applied to the slides (Vector Laboratories). Color was developed with diaminobenzoate chromogen peroxidase substrate (Vector) and counterstained with hematoxilin-eosyn. […]

OCI-Ly1 xenografts = test: OCI-Ly1 xenograft in NOD-SCID mice; assay type: in vivo; settings: IP 25 mg/kg/day
Experimental: as §1, §2
as §3, with “All procedures involving animals followed US NIH protocols and were approved by the Animal Institute Committee of the Weill Cornell Medical College of Cornell University.” left out

Chain of Caspase-9 (P55211 whole entry, species assumed): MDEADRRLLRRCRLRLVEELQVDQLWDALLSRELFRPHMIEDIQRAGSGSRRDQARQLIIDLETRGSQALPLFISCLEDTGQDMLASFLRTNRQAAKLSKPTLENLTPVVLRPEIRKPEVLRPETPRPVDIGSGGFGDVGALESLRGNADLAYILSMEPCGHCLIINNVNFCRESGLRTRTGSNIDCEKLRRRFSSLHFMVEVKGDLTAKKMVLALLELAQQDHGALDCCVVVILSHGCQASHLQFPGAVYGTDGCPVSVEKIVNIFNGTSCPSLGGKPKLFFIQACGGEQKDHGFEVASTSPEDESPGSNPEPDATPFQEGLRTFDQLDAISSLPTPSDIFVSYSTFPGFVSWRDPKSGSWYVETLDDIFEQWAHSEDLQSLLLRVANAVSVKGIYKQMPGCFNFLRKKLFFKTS

## COCCOc1nc(-c2ccc(Cl)c(Cl)c2)n(-c2ccc(NC(=O)CCl)cc2)n1 [MI-2]
Caspase-9
  activity against Caspase-9: little activity
[1]
  NF-κB induction by PMA/ionomycin stimulation: significantly inhibited NF-κB induction
[2]
  GSEA of ABC-DLBCL NF-κB gene expression signatures: significant enrichment of these NF-κB gene sets among genes downregulated
  GSEA of Z-VRPR-FMK signature: significantly enriched among genes downregulated after MI-2-treatment
HBL-1 and TMD8 cells
  viability and apoptosis: profoundly suppressed
[3]; fourteen injections, p=0.015
  xenograft growth vs. vehicle: profoundly suppressed the growth
[3]; p<0.0001
  apoptotic cells (TUNEL assay): significant increase in apoptotic cells
[3]; p=0.0006
  proliferation (Ki-67 staining): significant decrease in proliferation
OCI-Ly1 xenografts; fourteen injections, p=0.47
  tumor growth vs. vehicle: no effect on the growth
OCI-Ly1 xenografts; p=1.0
  proliferation (Ki-67 staining): no difference
